The values below come from a melting point compilation (Tetko et al.; mined from patent text by program, amines drawn as free bases though some values may be those of a salt).

One may read the melting point as the temperature, or range, at which the solid turns liquid. In turn, `CC(=O)NC1CCc2[nH]c3ccccc3c2C1` (stereo not drawn) gave a melting point of 170 °C.

Consider `Clc1cc(Cl)cc(-c2nc(Cl)c3ccccc3n2)c1`, for which the melting point amounted to 274 °C.

On to `Cc1nc(C)c(CBr)nc1C`, for which the melting point lay in the range of 41.2 to 44 °C.

The compound `O=C(Nc1ccc(C(F)(F)F)cc1)Nc1ccc2ncccc2c1` returned a melting point of 259 to 263 °C.

With `CN1CCN(c2cc3nc(C(C)(C)C)sc3cc2N)CC1`, the melting point is 130 °C.

For `O=C1c2ccccc2C(=O)N1CC(O)COc1cccc2ccccc12` (stereo not drawn), the melting point was in the range of 152 to 154 °C.

The compound `CCCCCc1cc(-c2ccc(F)cc2C(C)O)c(C(C)C)nc1C(C)C` (stereo not drawn) gave a melting point of 84 to 86 °C.

`CC12C=CC(O)CC1=CCC1C2CCC2(C)C(=O)CCC12` (stereo not drawn) had a melting point of 138 to 140 °C.

With `O=C(O)Cc1cccc2c(-c3ccc(F)cc3)nccc12`, the melting point lay in the range of 214 to 216 °C.

Regarding `CCc1cc2c(cc1F)c(C#N)c(-c1ccc(S(=O)(=O)N[C@@H](C)C(F)(F)F)cn1)n2-c1ncccn1`, the melting point is 195 to 198 °C.

`O=C(O)c1ccccc1CSc1ccc(Br)cc1` came in with a melting point of 139 to 140 °C.

As to `CON=C(C)c1nc(-c2cccnc2)[nH]c1C`, the melting point is 203 to 205 °C.

Turning to `O=C(O)c1c(-c2cc(Cl)cc(Cl)c2)c2ccccc2n1Cc1cc2c(cc1Cl)OCO2`, the melting point lay within 221 to 222 °C.

Take `CCCCCCCCCCCCOc1cc(O)c(C(=O)c2ccccc2)cc1Cl`: the melting point fell in the range of 75 to 77 °C.

The compound `CCN(C(=O)n1nnc2cc(Cl)c(Cl)cc21)c1ccccc1` registered a melting point of 120 °C.

Compound `CCn1c(=O)c(-c2c(Cl)cccc2Cl)cc2cnc(N)nc21` returned a melting point of 207 to 209 °C.

On to `CCOC(=O)C(NC(=O)c1ccc(C)cc1)C(=O)OCC`, for which the melting point was in the range of 98 to 99 °C.

In turn, `CC(C)(C(=O)O)c1cn2nc(NCCCN3CCC(OC(c4ccccc4)c4ccccc4)CC3)ccc2n1` showed a melting point of 205 to 206 °C.

The compound `CCN(CC)C(=O)Oc1nc(-c2ccccc2)nc2ccccc12` returned a melting point of 54 °C.

With `CCOC(=O)CNC(=O)C[C@H]1O[C@@H](c2ccccc2)c2cc(Cl)ccc2N(C(C)C)C1=O` (relative stereo), the melting point was in the range of 188 to 190 °C.

In turn, `C#Cc1cccc(Nc2ncnc3cc(OCCOC)c(OCCOC(C)=O)cc23)c1` came in with a melting point of 84 to 87 °C.

`Nc1cc(C(=O)NC2CC2)n[nH]1` gave a melting point above 246 °C.

`COC(=O)Cc1nsc(NC(=O)c2ccccc2)n1` came in with a melting point of 143 °C.

With `O=C(NC1CN2CCC1CC2)c1cccc2oc(-c3ccc(F)cc3)nc12` (stereo not drawn), the melting point fell in the range of 208 to 209 °C.

In turn, `CCCn1nc2c(N)nc3ccccc3c2c1CCCCN1C(C)=NOC12CCCC2` registered a melting point of 101 to 105 °C.

`Fc1cccc(-c2nc(-c3ccccn3)no2)c1` returned a melting point of 88 to 98 °C.

Compound `CCCCNc1nc(C=O)c(C#N)cc1C(=O)OCC` yielded a melting point of 81 to 83 °C.

Compound `CC(=NC#N)N[C@@H]1c2cc(C#N)ccc2OC(C)(C)[C@H]1OS(C)(=O)=O` (relative stereo) returned a melting point of 202 to 204 °C.

Compound `COc1ccc(C(=C/C=C/C(=O)NCCCCCc2ccccn2)c2ccc(OC)cc2)cc1` had a melting point of 99 to 100 °C.

Consider `CCCCCC1COc2cc(C3COC(C4COc5c(cc(F)c(C#N)c5F)C4)OC3)c(F)cc2C1` (stereo not drawn), for which the melting point is 111 °C.

In the case of `O=C(Nc1cccc(C(F)(F)F)c1)c1cccnc1NCc1ccc(=O)[nH]c1`, the melting point is 200 to 202 °C.

For the compound `CC(=O)C(=Cc1cccc([N+](=O)[O-])c1)C(=O)CCCCCCCCCCBr`, the melting point lay in the range of 64 to 67 °C.

Compound `CC(C)c1ccc(-c2noc3c2CCC(C(=O)O)CC3)cc1` (stereo not drawn) gave a melting point of 109 to 111 °C.

The compound `O=[N+]([O-])c1cn2c(n1)O[C@@H](COc1ccc(N3CCC(Nc4ccc(OC(F)(F)F)cc4)CC3)cc1)CC2` registered a melting point of 189 to 190 °C.

Compound `CC(=O)OC1CSC(Oc2cccc(-c3ccc(Cl)nc3)c2)C(OC(C)=O)C1OC(C)=O` (stereo not drawn) yielded a melting point of 129 °C.

The compound `O=C1c2ccc(O)cc2C(=O)N1c1cccc(O)c1` gave a melting point of 270 °C.

In the case of `COCC(COC)(Cc1ccccc1)Cc1ccccc1`, the melting point amounted to 95 °C.

On to `OCCOc1cc(O)ccc1-c1nc2cnccc2[nH]1`, for which the melting point came out at 250 °C.

On to `COc1ccc(Nc2ccccc2C(C)=C(Cl)Cl)cc1OC`, for which the melting point was 94 to 96 °C.

`O=C(CCOc1ccc(Cl)cc1)NCCCn1ccnc1` came in with a melting point of 114 to 116 °C.

`COc1nc2cc(Cl)c(Cl)c(N(CC(=O)O)S(C)(=O)=O)c2nc1OC`: the melting point is 203 to 206 °C.

In the case of `COC(=O)c1ccc(C(=O)NS(=O)(=O)c2ccc(OC(F)(F)F)cc2)cn1`, the melting point was in the range of 221 to 223 °C.

Turning to `CCSC1=C(C#N)C(c2ccccc2)(c2ccccc2)C(=O)N1CCCNC(=O)OC(C)(C)C`, the melting point is 88 °C.

In turn, `CC(CC(=O)c1ccc(Br)cc1)C(=O)N1CCCC1C(=O)O` (stereo not drawn) gave a melting point of 136 to 138 °C.

With `O=C(CCl)Nc1csc(NC(=O)CCl)n1`, the melting point was in the range of 188 to 192 °C.

For the compound `O=C1NC(=O)C(c2ccc(-c3ccccc3)s2)O1` (stereo not drawn), the melting point lay in the range of 233 to 235 °C.

For `N#Cc1nn(-c2c(Cl)cc(Cl)cc2Cl)c(N)c1C#N`, the melting point is 267 to 271 °C.

In the case of `Cc1ccc(NC(=O)c2nc(C)cc(C#N)c2C)nc1`, the melting point came out at 212 °C.

`CC(C)CN(CC(O)(Cn1cncn1)c1ccc(Cl)cc1Cl)S(C)(=O)=O` (stereo not drawn) yielded a melting point of 128 to 129 °C.

`CCNC(=O)c1cc(NS(=O)(=O)c2ccc(C(F)(F)F)cn2)ccc1Oc1cncc(Cl)c1` gave a melting point of 147 to 148 °C.

Take `CN1CC(C(=O)COC(=O)c2ccncc2)CC2c3cccc4[nH]cc(c34)CC21` (stereo not drawn): the melting point is 158 to 161 °C.

`Nc1c(F)c(F)c(F)c(F)c1NC(=S)Nc1c(Cl)cccc1Cl` registered a melting point above 300 °C.

`COc1ccc(CN(C)C)cc1CO` came in with a melting point of 67 to 69 °C.

Regarding `CCOC(=O)Cc1sc(Sc2cccc(C(=O)O)n2)nc1C`, the melting point was 123 to 125 °C.

For the compound `CS(=O)(=O)c1ccc(-n2cnc(Cl)c2-c2cnc(Cl)c(Cl)c2)cc1`, the melting point fell in the range of 223 to 230 °C.

As for `COC(=O)CCC1(CCC(=O)OC)CCC(=O)N1`, the melting point lay in the range of 70 to 73 °C.

Compound `CCc1cccc2c(C(CO)NC=O)c[nH]c12` (stereo not drawn) came in with a melting point of 195 to 197 °C.

Compound `Cc1c(-c2ccc(C3=CCN(C(=O)OC(C)(C)C)CC3)cc2)nc2n1CCc1ccccc1C2OC1CCN(C)CC1` (stereo not drawn) showed a melting point of 171 °C.

Regarding `CC1(C)CCc2c(N3CCSCC3)nc3sc4c(NCc5ccncc5)ncnc4c3c2C1`, the melting point was found to be 237 °C.

In the case of `CCCCCCCCCCCCOc1ccc(-c2ccc(CCCCC(=O)OCC)cc2)cc1`, the melting point came to 99 °C.

Turning to `O=C1Nc2ccc(Br)cc2C1c1ncnc2nn(C3CCCCC3)cc12` (stereo not drawn), the melting point was 285 to 290 °C.

`O=C(NC(Cc1ccc(OCc2ccccc2)cc1)C(=O)NC1C(C(=O)O)OC(n2cnc3c(NC(=O)c4ccccc4)ncnc32)C1O)OCc1ccccc1` (stereo not drawn) came in with a melting point of 150 to 155 °C.

`CC(C)(Sc1cc(C(C)(C)C)c(O)c(C(C)(C)C)c1)Sc1cc(C(C)(C)C)c(OCCC[C@H](O)CO)c(C(C)(C)C)c1` had a melting point of 68 to 71 °C.
